Measurements: PMC5301048, “Selection and early clinical evaluation of the brain‐penetrant 11β‐hydroxysteroid dehydrogenase type 1 (11β‐HSD1) inhibitor UE2343 (Xanamem™)” (British Journal of Pharmacology, 2017)
Like-named read-outs stand apart in the source and are kept apart here.

How the values were obtained:
[1] = Plasma protein binding, dog plasma; assay type: in vitro ADME; settings: mean ± SD [n]
[2] = Microsomal stability, human liver microsomes; assay type: in vitro ADME; settings: mean ± SD [n]
Protocol: (§1) Microsomal stability was determined using pooled human, rat or dog liver microsomes according to the method described in WO2011135276 (Webster et al., 2011a).

[3] = Multiple ascending dose study, pharmacokinetics; assay type: in vivo; settings: human; for AUC0–12h / Ae(0–12h) (%) / Ae(0–12h), amount excreted in urine / Oral clearance: mean (CV%); for estimated maximal CSF concentration / estimated mean CSF nadir at steady state (Cmin): calculated from plasma levels and CSF:plasma ratio; for Tmax / Cmax / half-life: plasma, oral
Protocol: A double‐blind, randomized, placebo‐controlled multiple ascending dose study was carried out at Linear Clinical Research Ltd, Nedlands, Australia. Each cohort consisted of eight healthy male subjects. Each subject received UE2343 or placebo twice daily (b.i.d ) (12 hourly) in the fed state for 9 days (Day 1 to Day 9) and once on the morning of Day 10 (19 doses in total). Dose cohorts were 10, 20 and 35 mg. Dose escalation and selection was dependent upon satisfactory review of the blinded safety (up to Day 17 ± 2) and plasma pharmacokinetics (up to Day 12) data from the preceding cohort. Safety, pharmacokinetic and pharmacodynamic assessments were made at pre‐determined time‐points during each part of the study.
(§2) Laboratory evaluation of clinical safety parameters was carried out using standard validated methods. Measurement of plasma pharmacodynamic markers [adrenocorticotropic hormone (ACTH), cortisol, 4‐androstenedione, testosterone and dehydroepiandrosterone sulphate (DHEA‐s)] was carried out using commercially available kits. Each method was fully validated prior to analysis. Urinary steroid metabolites were measured according to established methods (Boonen et al., 2013). UE2343 levels in plasma, urine and CSF was determined by LC–MS/MS using fully validated methods.
(§3) The data and statistical analysis comply with the recommendations on experimental design and analysis in pharmacology (Curtis et al., 2015). Levels of probability, P < 0.05 were deemed to constitute the threshold for statistical significance. Pharmacokinetic parameters, except Tmax (time of maximum observed drug concentration), are given as mean ± coefficient of variation (CV%). Tmax is given as median ± range. For each of the pharmacodynamic parameters [ACTH, cortisol, adrenal androgens, tetrahydrocortisols (THFs)/tetrahydrocortisone (THE) ratio], the maximum % change from baseline for each subject was subjected to ANOVA. For selected data, an additional covariate factor for the baseline was also included in the ANOVA/analysis of covariance (ANCOVA) model. Associated P‐values <0.05 for each comparison have been presented.

[4] = CSF study, plasma and CSF pharmacokinetics; assay type: in vivo; settings: human; for Tmax: median (range); for Kp at 5 h / concentration at 5 h / Cmax / half-life / AUC(0-t): 35 mg; for concentration at 5 h: CSF; for AUC(0-t): read-out: AUC0–12h
Protocol: A non‐randomized, open label, multiple dose phase I study to determine the pharmacokinetic parameters of UE2343 in CSF was carried out at Linear Clinical Research Ltd, Nedlands, Australia. Four healthy male subjects each received 35 mg UE2343 b.i.d (12 hourly) fed (30 min after the start of a standard meal) for 3 days (Day 1 to Day 3) and once on the morning of Day 4 (seven doses in total). Plasma pharmacokinetic samples were taken from each subject on Day 1 and Day 4. A single CSF sample was taken from each subject at 5 h post‐final dose on Day 4, corresponding to the plasma Tmax (time to maximum plasma concentration).
as §2, §3

[5] = Microsomal stability, rat liver microsomes; assay type: in vitro ADME; settings: mean ± SD [n]
Protocol: as §1

[6] = Microsomal stability, dog liver microsomes; assay type: in vitro ADME; settings: mean ± SD [n]
Protocol: as §1

[7] = male, plasma, oral, 35 mg b.i.d, Day 1, mean (CV%)
[8] = male, plasma, oral, 35 mg b.i.d, Day 4, mean (CV%)

With `O=C(c1csc(-c2cn[nH]c2)c1)N1C2CCC1CC(O)(c1ncccn1)C2` (centres unmarked) [compound 4] the “Plasma protein binding (% unbound), dog” value [1] was 44 ± 0 [1] % unbound, the “Liver microsomal stability (% parent at 30 min), human” value [2] was 99 ± 1 [3] % parent at 30 min and the “AUC0–12h” value ([3]; 10 mg b.i.d, Day 1) was 207 (79%) ng^.h·mL^−1. The “Ae(0–12h) (%)” value ([3]; 10 mg b.i.d, Day 1) was 0.35 (50%), the “Ae(0–12h), amount excreted in urine” value ([3]; 10 mg b.i.d, Day 1) was 34.6 (50%) μg and the “AUC0–12h” value ([3]; 10 mg b.i.d, Day 10) was 1917 (66%) ng^.h·mL^−1. The “Ae(0–12h) (%)” value ([3]; 10 mg b.i.d, Day 10) was 4.08 (46%), the “Ae(0–12h), amount excreted in urine” value ([3]; 10 mg b.i.d, Day 10) was 408 (46%) μg and the Oral clearance ([3]; 10 mg b.i.d, Day 10) was 7.24 (60%) L·h^−1. The “estimated maximal CSF concentration” value ([3]; 10 mg b.i.d) was 20 ng/mL, the “estimated mean CSF nadir at steady state (Cmin)” value (“estimated mean CSF nadir” for short) ([3]; 10 mg b.i.d) was 13 ng/mL and the “AUC0–12h” value ([3]; 20 mg b.i.d, Day 1) was 623 (69%) ng^.h·mL^−1. The “Ae(0–12h) (%)” value ([3]; 20 mg b.i.d, Day 1) was 0.54 (92%), the “Ae(0–12h), amount excreted in urine” value ([3]; 20 mg b.i.d, Day 1) was 107 (92%) μg and the “AUC0–12h” value ([3]; 20 mg b.i.d, Day 10) was 3175 (30%) ng^.h·mL^−1. For the same molecule, the “Ae(0–12h) (%)” value ([3]; 20 mg b.i.d, Day 10) was 3.22 (38%), the “Ae(0–12h), amount excreted in urine” value ([3]; 20 mg b.i.d, Day 10) was 644 (38%) μg and the Oral clearance ([3]; 20 mg b.i.d, Day 10) was 6.85 (33%) L·h^−1. The “estimated maximal CSF concentration” value ([3]; 20 mg b.i.d) was 34 ng/mL, the “estimated mean CSF nadir” value ([3]; 20 mg b.i.d) was 22 ng/mL and the “AUC0–12h” value ([3]; 35 mg b.i.d, Day 1) was 1843 (33%) ng^.h·mL^−1. The “Ae(0–12h) (%)” value ([3]; 35 mg b.i.d, Day 1) was 1.03 (46%), the “Ae(0–12h), amount excreted in urine” value ([3]; 35 mg b.i.d, Day 1) was 362 (46%) μg and the “AUC0–12h” value ([3]; 35 mg b.i.d, Day 10) was 7909 (36%) ng^.h·mL^−1. The “Ae(0–12h) (%)” value ([3]; 35 mg b.i.d, Day 10) was 3.84 (29%), the “Ae(0–12h), amount excreted in urine” value ([3]; 35 mg b.i.d, Day 10) was 1345 (29%) μg and the Oral clearance ([3]; 35 mg b.i.d, Day 10) was 5.02 (43%) L·h^−1. For the same molecule, the “estimated maximal CSF concentration” value ([3]; 35 mg b.i.d) was 81 ng/mL, the “estimated mean CSF nadir” value ([3]; 35 mg b.i.d) was 50 ng/mL and the “day by which steady state was achieved” value ([3]; 12 hourly dosing) was no more than 5 days. For the same molecule, the “fraction excreted in urine in the dosing interval (% Ae)” value ([3]; at steady state (Day 10)) was “approximately 4%”, the “increase in AUC0–12 from first dose to steady state” value ([3]; highest dose level (35 mg b.i.d), in words) was “greater than fourfold” and the Tmax ([3]; single and multiple dosing, range, read-out: plasma Tmax) was 3 to 6 h. It also gave a Cmax ([3]; male, 10 mg, 10 mg b.i.d, Day 1, mean (CV%)) of 29.1 ng/mL, a Tmax ([3]; male, 10 mg, 10 mg b.i.d, Day 1, median (range), read-out: Tmax) of 6 h and a Cmax ([3]; male, 10 mg, 10 mg b.i.d, Day 10, mean (CV%)) of 207 ng/mL. It also gave a half-life ([3]; male, 10 mg, 10 mg b.i.d, Day 10, mean (CV%), read-out: t 1/2 (converted)) of 13.8 h, a Tmax ([3]; male, 10 mg, 10 mg b.i.d, Day 10, median (range), read-out: Tmax) of 4 h and a Cmax ([3]; male, 20 mg, 20 mg b.i.d, Day 1, mean (CV%)) of 89.2 ng/mL. The Tmax ([3]; male, 20 mg, 20 mg b.i.d, Day 1, median (range), read-out: Tmax) was 4 h, the Cmax ([3]; male, 20 mg, 20 mg b.i.d, Day 10, mean (CV%)) was 365 ng/mL and the half-life ([3]; male, 20 mg, 20 mg b.i.d, Day 10, mean (CV%), read-out: t 1/2 (converted)) was 11.2 h. The Tmax ([3]; male, 20 mg, 20 mg b.i.d, Day 10, median (range), read-out: Tmax) was 3 h, the Cmax ([3]; male, 35 mg, 35 mg b.i.d, Day 1, mean (CV%)) was 268 ng/mL and the Tmax ([3]; male, 35 mg, 35 mg b.i.d, Day 1, median (range), read-out: Tmax) was 4 h. For the same molecule, the Cmax ([3]; male, 35 mg, 35 mg b.i.d, Day 10, mean (CV%)) was 892 ng/mL, the half-life ([3]; male, 35 mg, 35 mg b.i.d, Day 10, mean (CV%), read-out: t 1/2 (converted)) was 9.99 h and the Tmax ([3]; male, 35 mg, 35 mg b.i.d, Day 10, median (range), read-out: Tmax) was 4 h. For the same molecule, the half-life ([3]; male, 35 mg, multiple doses 10, 20 and 35 mg every 12 h, range across doses, read-out: terminal t 1/2) was 10 to 14 h, the Tmax ([3]; male, multiple doses, range across doses, read-out: median time to peak concentration following each dose) was 4 to 6 h and the “CCSF, 5h (concentration in CSF)” value ([4]; 35 mg b.i.d, Day 4, 5 h post-dose, mean (CV%), listed as UE2343) was 69.8 (44%) ng·mL^−1. The Tmax ([4]; 35 mg b.i.d, Day 4) was 5.1 (3–5) h, the “extent of accumulation in plasma after repeated dosing” value ([4]; 35 mg b.i.d, Day 4 vs Day 1) was 3.3 fold and the “time post‐dose at which mean Cmax was reached” value ([4]; 35 mg b.i.d, Days 1 and 4) was 5 h. The “CSF concentration relative to IC50 at Cmin” value ([4]; 35 mg twice daily, in words) was “more than fivefold”, the “CSF concentration relative to IC50 at Cmax” value ([4]; 35 mg twice daily, in words, listed as UE2343) was “up to ninefold greater” and the Kp at 5 h ([4]; male, CSF (relative to free plasma), oral, 35 mg b.i.d, Day 4, read-out: CSF levels as % of the free plasma levels, range) was 0.25 to 0.4. For the same molecule, the Kp at 5 h ([4]; male, CSF (relative to free plasma), oral, 35 mg b.i.d, at plasma Cmax on Day 4, read-out: mean CSF levels as % of the free plasma levels) was 0.33, the Kp at 5 h ([4]; male, CSF (relative to total plasma), oral, 35 mg b.i.d, Day 4, read-out: CSF concentration as % of simultaneous total plasma levels, range) was 0.0746 to 0.119 and the Kp at 5 h ([4]; male, CSF (relative to total plasma), oral, 35 mg b.i.d, at plasma Cmax on Day 4, read-out: mean CSF levels as % of the total plasma levels) was 0.1. For the same molecule, the concentration at 5 h ([4]; male, oral, 35 mg b.i.d, Day 4, 5 h post-dose, mean (CV%), read-out: CCSF, 5h (concentration in CSF)) was 69.8 ng/mL, the concentration at 5 h ([4]; male, oral, 35 mg b.i.d, Day 4, 5 h post-dose, read-out: concentration in the CSF, range over subjects) was 41.2 to 99.9 ng/mL and the Cmax [4, 7] was 235 ng/mL. For the same molecule, the half-life [4, 7] was 6.24 h, the AUC(0-t) [4, 7] was 1710 ng·h/mL and the Cmax [4, 8] was 708 ng/mL. For the same molecule, the half-life [4, 8] was 8.97 h, the AUC(0-t) [4, 8] was 5670 ng·h/mL and the Tmax ([4]; male, plasma, oral, 35 mg b.i.d, Day 1, read-out: Tmax) was 5.1 h. The “Liver microsomal stability (% parent at 30 min), rat” value [5] was 74 ± 1 [3] % parent at 30 min and the “Liver microsomal stability (% parent at 30 min), dog” value [6] was 92 ± 5 [3] % parent at 30 min.
